# According to ChEMBL document CHEMBL3272170, “Potential antitumor agents. 24. Dicationic analogues of the 4'-(9-acridinylamino)alkanesulfonanilides” (J Med Chem, 1977):
# How the values were obtained:
# in vivo [1] = details: C3H X DBA2 F1, mouse, ip
# Description: Toxicity in ip dosed C3H X DBA2 F1 mouse allografted with mouse L1210 cells through sc
# in vivo [2] = details: C3H X DBA2 F1, mouse, ip; remark: listed apart in the source
# Description: Toxicity in ip dosed C3H X DBA2 F1 mouse allografted with mouse L1210 cells through ip
# Description for physchem: Ionization constant, pKa of the compound by UV spectrophotometric analysis
smiles,measurement,setting,value
Nc1c2ccccc2nc2ccccc12 [AMINACRINE],pKa,physchem,9.6
CC(=O)Nc1ccc2c(Nc3ccc(NS(=O)(=O)CCCNC(=N)N)cc3)c3ccc([N+](=O)[O-])cc3nc2c1,pKa,physchem,5.58
NCCC(=O)NCCS(=O)(=O)Nc1ccc(Nc2c3ccccc3nc3ccccc23)cc1,pKa,physchem,6.91
COc1cc(NS(=O)(=O)CCCCN)ccc1Nc1c2ccccc2nc2cc([N+](=O)[O-])ccc12,pKa,physchem,5.58
CC(=O)Nc1ccc2c(Nc3ccc(NS(=O)(=O)CCNC(=N)N)cc3)c3ccc([N+](=O)[O-])cc3nc2c1,pKa,physchem,5.55
Cl.NCCCCCS(=O)(=O)Nc1ccc(Nc2c3ccccc3nc3cc([N+](=O)[O-])ccc23)cc1,MTD,in vivo [1],44 mg/kg/day
same,pKa,physchem,5.36
Cc1cccc2c(Nc3ccc(NS(=O)(=O)CCCCN)cc3)c3ccc([N+](=O)[O-])cc3nc12.Cl,MTD,in vivo [2],200 mg/kg/day
same,pKa,physchem,5.44
NCC(=O)NCCS(=O)(=O)Nc1ccc(Nc2c3ccccc3nc3cc([N+](=O)[O-])ccc23)cc1,pKa,physchem,5.34
N=C(N)NCCCCS(=O)(=O)Nc1ccc(Nc2c3ccccc3nc3cc([N+](=O)[O-])ccc23)cc1,pKa,physchem,5.36
Cc1ccc2c(Nc3ccc(NS(=O)(=O)CCCCN)cc3)c3ccc([N+](=O)[O-])cc3nc2c1C,pKa,physchem,5.52
N=C(N)NCCCCCS(=O)(=O)Nc1ccc(Nc2c3ccccc3nc3cc([N+](=O)[O-])ccc23)cc1,pKa,physchem,5.36
Cc1cccc2c(Nc3ccc(NS(=O)(=O)CCCCNC(=N)N)cc3)c3cccc(C)c3nc12,pKa,physchem,6.41
C[n+]1c2ccccc2c(Nc2ccc(NS(=O)(=O)CCCCNC(=N)N)cc2)c2ccccc21.[Br-],MTD,in vivo [2],150 mg/kg/day
same,pKa,physchem,6.69
Cl.NCCCS(=O)(=O)Nc1ccc(Nc2c3ccccc3nc3cc([N+](=O)[O-])ccc23)cc1,MTD,in vivo [1],20 mg/kg/day
same,pKa,physchem,5.33
C[n+]1c2ccccc2c(Nc2ccc(NS(C)(=O)=O)cc2)c2ccc(N)cc21,pKa,physchem,10.1
CN(C)CCCCS(=O)(=O)Nc1ccc(Nc2c3ccccc3nc3cc([N+](=O)[O-])ccc23)cc1.Cl,MTD,in vivo [1],10 mg/kg/day
same,pKa,physchem,5.36
Cl.NCCCCCCS(=O)(=O)Nc1ccc(Nc2c3ccccc3nc3cc([N+](=O)[O-])ccc23)cc1,MTD,in vivo [1],2 mg/kg/day
same,pKa,physchem,5.34
NCC(=O)NCCS(=O)(=O)Nc1ccc(Nc2c3ccccc3nc3ccccc23)cc1,pKa,physchem,6.9
NCCCCCCCS(=O)(=O)Nc1ccc(Nc2c3ccccc3nc3cc([N+](=O)[O-])ccc23)cc1,pKa,physchem,5.36
Cl.NCCCCCS(=O)(=O)Nc1ccc(Nc2c3ccccc3nc3ccccc23)cc1,MTD,in vivo [2],60 mg/kg/day
same,pKa,physchem,6.92
Cl.NCCCCCCS(=O)(=O)Nc1ccc(Nc2c3ccccc3nc3ccccc23)cc1,MTD,in vivo [2],65 mg/kg/day
same,pKa,physchem,6.92
Cl.N=C(N)NCCCCS(=O)(=O)Nc1ccc(Nc2c3ccccc3nc3ccccc23)cc1,MTD,in vivo [2],75 mg/kg/day
same,pKa,physchem,6.91
N=C(N)NCCS(=O)(=O)Nc1ccc(Nc2c3ccccc3nc3cc([N+](=O)[O-])ccc23)cc1,pKa,physchem,5.26
NCCCCS(=O)(=O)Nc1ccc(Nc2c3ccccc3nc3cc([N+](=O)[O-])ccc23)cc1,pKa,physchem,5.34
C[n+]1c2ccccc2c(Nc2ccc(NS(=O)(=O)CCCCN)cc2)c2ccccc21,pKa,physchem,6.72
NCCS(=O)(=O)Nc1ccc(Nc2c3ccccc3nc3cc([N+](=O)[O-])ccc23)cc1,pKa,physchem,5.25
N=C(N)NCCCS(=O)(=O)Nc1ccc(Nc2c3ccccc3nc3cc([N+](=O)[O-])ccc23)cc1,pKa,physchem,5.34
NCCCS(=O)(=O)Nc1ccc(Nc2c3ccccc3nc3ccccc23)cc1,pKa,physchem,6.89
CS(=O)(=O)Nc1ccc(Nc2c3ccccc3nc3ccccc23)cc1,pKa,physchem,7.19
C[n+]1c2ccccc2c(Nc2ccc(NS(=O)(=O)CCNC(=O)CCN)cc2)c2ccccc21,pKa,physchem,6.7
N=C(N)NCCCS(=O)(=O)Nc1ccc(Nc2c3ccc([N+](=O)[O-])cc3nc3cc([N+](=O)[O-])ccc23)cc1,pKa,physchem,3.68
Cl.N=C(N)NCCCCS(=O)(=O)Nc1ccc(Nc2c3ccccc3nc3cc(Cl)ccc23)cc1,MTD,in vivo [2],150 mg/kg/day
same,pKa,physchem,6.33
N=C(N)NCCCCCCS(=O)(=O)Nc1ccc(Nc2c3ccccc3nc3cc([N+](=O)[O-])ccc23)cc1,pKa,physchem,5.35
CC(=O)Nc1ccc2c(Nc3ccc(NS(=O)(=O)CCCCN)cc3)c3ccccc3nc2c1,pKa,physchem,7.16
NCCC(=O)NCCS(=O)(=O)Nc1ccc(Nc2c3ccccc3nc3cc([N+](=O)[O-])ccc23)cc1,pKa,physchem,5.35
Cl.NCCS(=O)(=O)Nc1ccc(Nc2c3ccccc3nc3ccccc23)cc1,MTD,in vivo [2],35 mg/kg/day
same,pKa,physchem,6.62
NCCCCS(=O)(=O)Nc1ccc(Nc2c3ccccc3nc3ccccc23)cc1,pKa,physchem,6.91
Cl.NCCCCCCCCS(=O)(=O)Nc1ccc(Nc2c3ccccc3nc3cc([N+](=O)[O-])ccc23)cc1,MTD,in vivo [2],30 mg/kg/day
same,pKa,physchem,5.35
